In patent US20190262453A1, “DESIGN AND COMPOSITION OF CELL-STABILIZED PHARMACEUTICAL FORMULATIONS” (THE REGENTS OF THE UNIVERSITY OF MICHIGAN, priority 2016, published 2019):
Counter-ions that a name gives are not always drawn.

Test: pH-dependent solubility study of CFZ-HCl (Flynn approach)
Assay type: physicochemical
Method: Solubility Measurement Using the Flynn Approach. […] Mili-Q water (15 mL) was added to each vial ensuring that CFZ-HCl crystals were in great excess. Moreover, an appropriate amount of 0.1 M NaOH was added to each vial to set the initial equilibration pH measurements as follows: […] The set of sample containing vials was placed on a magnetic stirrer plate in a 25° C. water bath. […] The pH of the filtered sample was determine by Denver Instrument UltraBasic pH meter (Denver Instrument, Bohemia, N.Y.), after which the sample was subjected to HPLC analysis (Waters Alliance, Separations Module 2695) to determine the total solubility of the drug at the measured pH. […] The retention time for CFZ was determined to be at 4.75 min. […] Thus, in order to fit the experimental solubility-pH data curve of CFZ-HC, it was determined which one of the aforementioned solubility-pH relationships (equation 8 vs. equation 9) to use. […] Then, a value, say “y”, from the list of the computed [CFZH^+] values was set equal [CFZH+]S. By substituting “y' in place of [CFZH+]S, total solubility at the different pH values was calculated using the solubility-pH equation where the intrinsic salt is the primary solid species (equation 15). […]

In the case of `CC(C)/N=c1\cc2n(-c3ccc(Cl)cc3)c3ccccc3nc-2cc1Nc1ccc(Cl)cc1` [CFZ-HCl, Clofazimine Hydrochloride], the “solubility versus unprotonated CFZ free base” value (dissolved in pure water) is reported as “greater solubility” and the pHmax (from pH-solubility profile, 25° C.) is reported as 4.5±7.11×10^−15.
